Measured values published in patent US7700590B2, “Antibacterial agents” (University of New Orleans Research and Technology …, priority 2006, dated 2010).
Converted amounts (≈) assume the structure as drawn.

Experiments:
Format in all cases: cell-based
[1] = test system: Gram positive bacteria, including S. aureus, E. faecalis and B. subtilis; assay: Antibacterial activity, statements not tied to one strain; settings: strain not singled out
Protocol: (§1) The antibacterial activities of the compounds synthesized as described above were evaluated by assay against several strains of Gram positive bacteria from the American Type Culture Collection (ATCC), Staphylococcus aureus 29213, Staphylococcus aureus 43300, Enterococcus faecalis 29212, and Bacillus subtilis PY79. The minimum inhibition concentration (MIC, μg/mL) of each compound synthesized was tested against four bacterial strains. The inhibition of bacterial growth was monitored using a standard colorimeter at 600 nm using a serial dilution at concentrations 238, 119, 59.5, 29.8, 14.9, 7.44, 3.72, 1.86, 0.93, 0.46 μg/ml. Chloramphenicol was tested as a control, and inhibits bacteria growth (MIC90) at 7.44, 7.44, 4.0, 2.0 μg/mL, respectively, for the four bacterial strains listed in Table 1. In Table 1, the MICs are reported as the concentrations at 50% inhibition of bacteria growth, and N stands for no inhibition.

[2] = test system: Staphylococcus aureus 29213; assay: Antibacterial growth inhibition assay (serial dilution, colorimeter at 600 nm), S. aureus 29213; set-up: key to MIC, concentration at 50% inhibition of bacteria growth, S. aureus 29213: N stands for no inhibition; settings: for MIC, concentration at 50% inhibition of bacteria growth, S. aureus 29213: 50% growth inhibition, methicillin susceptible strain, serial dilution 238-0.46 μg/ml
Protocol: as §1

[3] = test system: Enterococcus faecalis 29212; assay: Antibacterial growth inhibition assay (serial dilution, colorimeter at 600 nm), E. faecalis 29212; settings: for MIC, concentration at 50% inhibition of bacteria growth, E. faecalis 29212: 50% growth inhibition, vancomycin susceptible strain, serial dilution 238-0.46 μg/ml
Protocol: as §1

Bacillus subtilis PY79 = assay: Antibacterial growth inhibition assay (serial dilution, colorimeter at 600 nm), B. subtilis PY79; set-up: key to MIC, concentration at 50% inhibition of bacteria growth, B. subtilis PY79: N stands for no inhibition; settings: for MIC, concentration at 50% inhibition of bacteria growth, B. subtilis PY79: 50% growth inhibition, serial dilution 238-0.46 μg/ml
Protocol: as §1

[4] = test system: Staphylococcus aureus 43300; assay: Antibacterial growth inhibition assay (serial dilution, colorimeter at 600 nm), S. aureus 43300; set-up: key to MIC, concentration at 50% inhibition of bacteria growth, S. aureus 43300: N stands for no inhibition; settings: for MIC, concentration at 50% inhibition of bacteria growth, S. aureus 43300: 50% growth inhibition, methicillin resistant strain, serial dilution 238-0.46 μg/ml
Protocol: as §1

MIC90 ([2]; Staphylococcus aureus, S. aureus 29213, read-out: MIC90 (control)) | MIC90 ([3]; Enterococcus faecalis, E. faecalis 29212, read-out: MIC90 (control)) | MIC90 (Bacillus subtilis PY79; Bacillus subtilis, B. subtilis PY79, read-out: MIC90 (control)) | MIC90 ([4]; Staphylococcus aureus, S. aureus 43300, read-out: MIC90 (control)) | MIC, concentration at 50% inhibition of bacteria growth, S. aureus 29213 [2] | MIC, concentration at 50% inhibition of bacteria growth, E. faecalis 29212 [3] | MIC, concentration at 50% inhibition of bacteria growth, B. subtilis PY79 (Bacillus subtilis PY79) | MIC, concentration at 50% inhibition of bacteria growth, S. aureus 43300 [4] | Compound | antibacterial activity in words [1] | antibacterial activity in words ([2]; S. aureus 29213) | antibacterial activity in words ([4]; S. aureus 43300)
 |  |  |  |  |  |  |  | CCN1CC[C@@H](CN(Cc2ccccc2)Cc2ccc(Cl)c(Cl)c2)OC1=O (stereo in doubt) [Compound A11, 6-{[benzyl-(3,4-dichloro-benzyl)-amino]-methyl}-3-ethyl-[1,3]oxazinan-2-one] | good activity |  | 
7.44 µg/mL (≈ 23 µM) | 4 µg/mL (≈ 12.4 µM) | 2 µg/mL (≈ 6.19 µM) | 7.44 µg/mL (≈ 23 µM) |  |  |  |  | O=C(N[C@H](CO)[C@H](O)c1ccc([N+](=O)[O-])cc1)C(Cl)Cl [Chloramphenicol, reference compound] |  |  | 
 |  |  |  | N | 45.0 µg/mL | N | N | CCN1CC[C@@H](CN(Cc2ccccc2)Cc2ccc([N+](=O)[O-])cc2)OC1=O [Compound A1] |  |  | 
 |  |  |  | 90.0 µg/mL | 47.0 µg/mL | 108 µg/mL | 22.0 µg/mL | CCN1CC[C@@H](CN(Cc2ccccc2)Cc2cccc([N+](=O)[O-])c2)OC1=O [Compound A2] |  |  | 
 |  |  |  | 72.0 µg/mL | 43.0 µg/mL | 100 µg/mL | 100 µg/mL | CCN1CC[C@@H](CN(Cc2ccccc2)Cc2ccccc2[N+](=O)[O-])OC1=O [Compound A3] |  |  | 
 |  |  |  | 180 µg/mL | 12.0 µg/mL | 10.0 µg/mL | 59.5 µg/mL | CCN1CC[C@@H](CN(Cc2ccccc2)Cc2ccc(C#N)cc2)OC1=O [Compound A4] |  |  | 
 |  |  |  | 238 µg/mL | 45.0 µg/mL | 238 µg/mL | N | CCN1CC[C@@H](CN(Cc2ccccc2)Cc2cccc(C#N)c2)OC1=O [Compound A5] |  |  | 
 |  |  |  | 130 µg/mL | 33.0 µg/mL | 160 µg/mL | 180 µg/mL | CCN1CC[C@@H](CN(Cc2ccccc2)Cc2ccccc2C#N)OC1=O [Compound A6] |  |  | 
 |  |  |  | 64.0 µg/mL | 35.0 µg/mL | 42.5 µg/mL | 47.0 µg/mL | CCN1CC[C@@H](CN(Cc2ccccc2)Cc2ccc(F)cc2)OC1=O [Compound A7] |  |  | 
 |  |  |  | 45.0 µg/mL | 59.5 µg/mL | 38.0 µg/mL | 50.5 µg/mL | CCN1CC[C@@H](CN(Cc2ccccc2)Cc2ccc(F)cc2F)OC1=O [Compound A8] |  |  | 
 |  |  |  | 47.0 µg/mL | 59.5 µg/mL | 77.0 µg/mL | 70.0 µg/mL | CCN1CC[C@@H](CN(Cc2ccccc2)Cc2c(F)cccc2F)OC1=O [Compound A9] |  |  | 
 |  |  |  | 40.0 µg/mL | 37.0 µg/mL | 43.0 µg/mL | 45.0 µg/mL | CCN1CC[C@@H](CN(Cc2ccccc2)Cc2cc(F)cc(F)c2)OC1=O [Compound A10] |  |  | 
 |  |  |  | 15.0 µg/mL | 13.0 µg/mL | 29.0 µg/mL | N | CCN1CC[C@@H](CN(Cc2ccccc2)Cc2ccc3ccccc3c2)OC1=O [Compound A12] |  | promising activity | no activity
 |  |  |  | 90.0 µg/mL | 80.5 µg/mL | 95.0 µg/mL | 90.0 µg/mL | CCN1CC[C@@H](CN(Cc2ccccc2)Cc2cccc(OC)c2)OC1=O [Compound A16] |  |  | 
 |  |  |  | 81.0 µg/mL | 119 µg/mL | 98.0 µg/mL | N | CN1CC[C@@H](CN(Cc2ccccc2)Cc2ccc([N+](=O)[O-])cc2)OC1=O [Compound B1] |  |  | 
 |  |  |  | 138 µg/mL | 119 µg/mL | 238 µg/mL | N | CN1CC[C@@H](CN(Cc2ccccc2)Cc2cccc([N+](=O)[O-])c2)OC1=O [Compound B2] |  |  | 
 |  |  |  | 179 µg/mL | 238 µg/mL | 238 µg/mL | N | CN1CC[C@@H](CN(Cc2ccccc2)Cc2ccccc2[N+](=O)[O-])OC1=O [Compound B3] |  |  | 
 |  |  |  | 200 µg/mL | 238 µg/mL | 238 µg/mL | N | CN1CC[C@@H](CN(Cc2ccccc2)Cc2ccc(C#N)cc2)OC1=O [Compound B4] |  |  | 
 |  |  |  | 180 µg/mL | 7.40 µg/mL | 180 µg/mL | 238 µg/mL | CN1CC[C@@H](CN(Cc2ccccc2)Cc2cccc(C#N)c2)OC1=O [Compound B5] |  |  | 
 |  |  |  | 166 µg/mL | 59.5 µg/mL | 180 µg/mL | 180 µg/mL | CN1CC[C@@H](CN(Cc2ccccc2)Cc2ccccc2C#N)OC1=O [Compound B6] |  |  | 
 |  |  |  | 87.1 µg/mL | 120 µg/mL | 95.0 µg/mL | 119 µg/mL | CN1CC[C@@H](CN(Cc2ccccc2)Cc2ccc(F)cc2)OC1=O [Compound B7] |  |  | 
 |  |  |  | 50.0 µg/mL | 59.5 µg/mL | 55.0 µg/mL | 72.0 µg/mL | CN1CC[C@@H](CN(Cc2ccccc2)Cc2ccc(F)cc2F)OC1=O [Compound B8] |  |  | 
